{"source": "paper PMC11514582", "about": "“Leveraging the Aggregated Protein Dye YAT2150 for Malaria Chemotherapy” (Pharmaceutics, 2024)", "key": {"[1]": {"settings": "cited from earlier work"}, "[2]": {"test_system": "P. falciparum asexual blood stages", "settings": "CC50 in HUVEC / IC50 two-hour incubation in P. falciparum", "description": "The asexual blood stages of P. falciparum parasites of the 3D7 strain (Malaria Research and Reference Reagent Resource Center, Manassas, VA, USA) were cultured in group B human RBCs at 3% hematocrit, which was kept throughout the experiments, and incubated in RPMIc. Parasites were maintained at 37 °C under an atmosphere of 5% O2, 5% CO2, and 90% N2. […] The parasites were then cultured under standard conditions for 48 h, allowing for a complete replication cycle. After the incubation period, 3 µL of culture from each well was mixed with 197 µL of PBS containing 0.1 µM Syto 11 (Thermo Fisher Scientific, Inc.) to obtain a final concentration of 1 × 10^6 to 10 × 10^6 cells/mL. Parasitemia levels were measured using an LSRFortessa flow cytometer equipped with a standard configuration of four lasers and 20 parameters. Single-cell populations were identified on a forward-side scatter plot. […] The inhibition data were then transformed using sigmoidal fitting to determine IC50.\nFor stage arrest assays, P. falciparum cultures were tightly synchronized in schizont stages by repeated treatment with 70% Percoll (GE Healthcare, Chicago, IL, USA) [26, 27]. […] Pictures were taken with a Nikon Eclipse 50i microscope equipped with a DS-Fi1 camera (Nikon Corporation, Tokyo, Japan)."}, "[3]": {"test_system": "P. falciparum asexual blood stages", "settings": "read-out: in vitro IC50 in P. falciparum cultures, including gametocytes; cited from earlier work"}, "LYWIYY peptide": {"test_system": "LYWIYY peptide", "experiment": "Transmission electron microscopy of peptide aggregation", "type": "biochemical, Plasmodium falciparum", "settings": "100 nM, 25 µM peptide, 24 h after disaggregation", "procedure": "To disaggregate peptides before the assay, 1 mg of lyophilized peptide was dissolved in 1 mL of trifluoroacetic acid (TFA), which, after thoroughly mixing, was evaporated under a N2 stream, and 500 µL of 1,1,1,3,3,3-hexafluoro-2-propanol (HFIP; Honeywell Fluka-Thermo Fisher Scientific, Inc.) were added, mixed well, and evaporated as mentioned before (repeated twice to fully remove TFA). Then, 500 µL of HFIP was added, and the solution was divided into aliquots and placed in a desiccator overnight. Afterward, 500 µL of PBS was added to each aliquot to have a final peptide concentration of 25 µM, and, to ensure minimal aggregation (t0), the samples were sonicated for 10 min in a water bath sonicator (FB15053 ultrasonic bath, Thermo Fisher Scientific, Inc.). To study the effect of YAT2150 on peptide aggregation, the compound was added at a final concentration of 100 nM and incubated for 24 h at 37 °C under stirring at 1400 rpm (t24). For disaggregation analysis, a 25 µM peptide aliquot was first pre-aggregated for 24 h (37 °C, 1400 rpm); after this time, YAT2150 was added at a final concentration of 100 nM, and the samples were incubated for an additional 24 h in the same conditions (t48). Control samples in the absence of YAT2150 were included. A 5-μL drop of each sample was deposited onto a carbon-coated copper grid (Ted Pella, Redding, CA, USA) for 1 h. […]"}, "[4]": {"experiment": "In vivo toxicity in C. elegans", "set-up": "species or system Caenorhabditis elegans", "settings": "N2 Bristol, Caenorhabditis elegans, in vivo; 48 h, viability", "procedure": "(§1) The Caenorhabditis elegans N2 Bristol strain (kindly provided by Dr. Christian Griñán-Ferré) was cultured, following established methods, in 90 mm Petri dishes containing solid Nematode Growth Media (NGM) seeded with E. coli OP50 (100 µL of an overnight culture spread on top of the NGM), maintained at 20 °C, and expanded to new plates once a week by transferring a 1-cm^3 NGM cube to a new plate. […] To do this, a plate with gravid adult worms was washed twice with 5 mL of M9 buffer (20 mM KH2PO4, 42 mM Na2HPO4, 86 mM NaCl, 1 mM MgSO4), and the nematodes were transferred to a 15-mL conical tube, where they were pelleted (400× g, 2 min). […] C. elegans viability and body length were analyzed after 48 h under a stereomicroscope (Leica M50 Routine Stereo Microscope; Leica Microsystems GmbH), taking representative images and videos with a 4× objective. C. elegans viability was determined in three experimentally independent replicas according to two variables: body shape (stiff, rod-like worms were counted as dead, as opposite to s-shaped live worms) and presence of movement in living C. elegans, with an n ≥ 100 worms/sample. Nematode body length was calculated with ImageJ software in worms anesthetized with 50 mM sodium azide. Statistically significant differences between groups were determined by the two-way analysis of variance (ANOVA) using GraphPad Prism 9.0.1."}, "C. elegans": {"test_system": "C. elegans", "experiment": "In vivo toxicity in C. elegans", "set-up": "species or system Caenorhabditis elegans", "settings": "non-encapsulated, 50 µM", "procedure": "as §1"}, "[5]": {"settings": "cited from earlier work", "remark": "listed apart in the source"}, "[6]": {"test_system": "liver stages of P. berghei in Huh7", "settings": "human hepatoma cell line Huh7; read-out: IC50 against liver stages of P. berghei; cited from earlier work"}, "[7]": {"experiment": "Human plasma protein binding (Rapid Equilibrium Dialysis)", "type": "in vitro ADME", "settings": "pH 7.2, RED, 4 h at 37 °C", "procedure": "The assay was carried out by Rapid Equilibrium Dialysis (RED). The compounds were dissolved at 5 μM in human plasma and added to the corresponding insert of the RED device (Thermo Fisher Scientific, Inc., Waltham, MA, USA), and dialysis was performed for 4 h at 37 °C in […], 25 mM tris-HCl, pH 7.2 (Tris BupH^TM, Thermo Fisher Scientific, Inc.). Then, 50-µL aliquots from each chamber were transferred to empty vials, to which 50 µL of dialysis buffer was added. As control, 50 µL of plasma was mixed with 50 µL of buffer. Three hundred µL of acetonitrile was added to all the samples, which were analyzed by ultra-performance liquid chromatography with tandem mass spectrometry as previously described."}}, "data": [{"smiles": "CCN(CC)c1ccc(/C=C/c2cc[n+](CCCCCCCCCC[n+]3ccc(/C=C/c4ccc(N(CC)CC)cc4)c(C)c3)cc2C)cc1", "note": "[YAT2150]", "values": [{"measurement": "Microsomal stability (% remaining after 1 h)", "setting": "[1]; human microsomes, 37 °C", "result": "54.6 ^7%"}, {"measurement": "Microsomal stability T1/2", "setting": "[1]; human, microsomes", "result": "80.5 ^7 min"}, {"measurement": "SI (CC50/IC50)", "setting": "[2]", "result": "~66"}, {"measurement": "IC50", "setting": "[3]", "result": "< 100", "unit": "nM"}, {"measurement": "effect on LYWIYY aggregation (TEM)", "setting": "LYWIYY peptide", "result": "significantly abolished after 24 h the formation of LYWIYY amyloid fibrils"}, {"measurement": "IC50 at 48 h", "setting": "[4]", "result": "16200 ± 1400", "unit": "nM"}, {"measurement": "nematode survival/length assay observation", "setting": "C. elegans", "result": "No worms could be found"}, {"measurement": "Stability in human plasma (% remaining after 1 h)", "setting": "[5]; 1 h", "result": "100.0 ^7%"}, {"measurement": "Stability in human plasma (% remaining after 2 h)", "setting": "[5]; 2 h", "result": "99.7 ^7%"}, {"measurement": "Stability in human plasma (% remaining after 6 h)", "setting": "[5]; 6 h", "result": "91.3 ^7%"}, {"measurement": "IC50", "setting": "[6]", "result": 780, "unit": "nM"}, {"measurement": "fraction unbound at 4 h, 5 μM", "setting": "[7]", "result": 0.003}]}]}
